{
  "source": "patent US10711041B2",
  "about": "“Lyophilisate containing a cyclic peptide of formula X1-[sequence]-X2” (priority 2013, dated 2020)",
  "key": {"[1]": {"molecular_target": "T1, amilorid-sensitive Sodium Ion Channel (ENaC) (Homo sapiens, UniProt P37088)", "T1 construct": "Macroscopic Sodium Ion Currents were derived from human lung epithelian cells A549; endogenous in cells; host or cells: A549 human lung epithelial cells", "T1 sequence (P37088 1-669)": "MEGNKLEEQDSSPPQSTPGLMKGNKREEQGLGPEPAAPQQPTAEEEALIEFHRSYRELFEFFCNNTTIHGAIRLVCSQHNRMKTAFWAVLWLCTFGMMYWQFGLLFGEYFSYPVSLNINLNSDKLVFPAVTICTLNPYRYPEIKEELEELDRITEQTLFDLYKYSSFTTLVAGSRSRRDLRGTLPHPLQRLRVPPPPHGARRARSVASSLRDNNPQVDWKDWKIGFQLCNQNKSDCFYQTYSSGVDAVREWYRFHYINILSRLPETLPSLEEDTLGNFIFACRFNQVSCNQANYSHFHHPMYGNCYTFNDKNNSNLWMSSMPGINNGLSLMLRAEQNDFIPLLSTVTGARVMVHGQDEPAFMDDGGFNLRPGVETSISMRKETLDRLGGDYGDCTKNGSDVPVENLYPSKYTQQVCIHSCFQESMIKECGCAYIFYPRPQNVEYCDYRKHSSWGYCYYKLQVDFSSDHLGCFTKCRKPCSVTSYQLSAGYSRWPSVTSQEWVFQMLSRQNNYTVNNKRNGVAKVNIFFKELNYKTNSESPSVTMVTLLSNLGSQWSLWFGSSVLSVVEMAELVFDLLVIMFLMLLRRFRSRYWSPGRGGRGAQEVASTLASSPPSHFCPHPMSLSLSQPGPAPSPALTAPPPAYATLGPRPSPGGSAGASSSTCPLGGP", "T1 sequence (P51168 1-640 partner)": "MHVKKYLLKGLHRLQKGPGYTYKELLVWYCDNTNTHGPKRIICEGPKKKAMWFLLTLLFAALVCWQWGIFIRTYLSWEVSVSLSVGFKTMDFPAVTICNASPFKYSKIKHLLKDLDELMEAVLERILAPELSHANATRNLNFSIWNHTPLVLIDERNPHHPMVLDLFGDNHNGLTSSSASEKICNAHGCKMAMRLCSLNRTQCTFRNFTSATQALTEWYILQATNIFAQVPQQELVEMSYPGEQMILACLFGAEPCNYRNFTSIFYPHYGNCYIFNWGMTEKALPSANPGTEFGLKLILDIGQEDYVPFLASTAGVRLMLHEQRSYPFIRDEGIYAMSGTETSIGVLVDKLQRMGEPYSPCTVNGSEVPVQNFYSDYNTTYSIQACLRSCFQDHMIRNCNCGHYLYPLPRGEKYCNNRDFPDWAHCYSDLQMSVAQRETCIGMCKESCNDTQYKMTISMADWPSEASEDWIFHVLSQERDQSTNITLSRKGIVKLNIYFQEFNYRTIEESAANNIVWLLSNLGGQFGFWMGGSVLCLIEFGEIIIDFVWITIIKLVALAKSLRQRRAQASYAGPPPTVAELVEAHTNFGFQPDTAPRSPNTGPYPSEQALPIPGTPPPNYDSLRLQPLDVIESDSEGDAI", "T1 sequence (P51170 1-649 partner)": "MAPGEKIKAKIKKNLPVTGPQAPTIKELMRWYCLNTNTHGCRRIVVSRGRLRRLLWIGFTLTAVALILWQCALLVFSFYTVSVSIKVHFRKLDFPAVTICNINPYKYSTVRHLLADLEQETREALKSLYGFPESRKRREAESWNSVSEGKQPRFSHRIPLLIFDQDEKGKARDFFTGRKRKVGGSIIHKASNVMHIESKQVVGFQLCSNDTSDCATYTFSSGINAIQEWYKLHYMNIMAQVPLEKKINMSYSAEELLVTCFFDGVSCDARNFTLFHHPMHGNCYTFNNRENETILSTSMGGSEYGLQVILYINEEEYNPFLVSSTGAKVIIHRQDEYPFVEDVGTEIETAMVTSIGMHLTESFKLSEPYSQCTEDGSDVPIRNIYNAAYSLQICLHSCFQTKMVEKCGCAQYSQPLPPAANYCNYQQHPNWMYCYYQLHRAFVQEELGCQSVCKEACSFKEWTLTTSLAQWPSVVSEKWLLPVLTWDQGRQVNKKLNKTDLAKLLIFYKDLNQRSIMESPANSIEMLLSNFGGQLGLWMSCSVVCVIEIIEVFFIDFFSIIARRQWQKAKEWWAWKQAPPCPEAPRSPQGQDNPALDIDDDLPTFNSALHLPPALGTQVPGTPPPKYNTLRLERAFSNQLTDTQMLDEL", "experiment": "Patch Clamp whole cell sodium current in deglycosylated (PNGase F) and untreated A549 cells", "format": "cell-based", "settings": "peptide 240 nM, Eh = −100 mV", "protocol": "[…] After control recordings, 240 nM of the peptide of amino acid sequence SEQ ID NO:1 was added to the bath solution. […] Whole cell currents were recorded at Eh=−100 mV. The concentration of the peptides of amino acid sequence SEQ ID NO:1 to SEQ ID NO:7 in the bath solution was 240 nM."}, "[2]": {"experiment": "Stability of the aqueous solution before inhalation (visual inspection, reverse HPLC)", "format": "physicochemical", "protocol": "For that reason the stability of an aqueous solution was investigated exemplarily. The ready to use-solution therefore was stored either in a syringe commonly used in laboratory, at 2 to 8° C. for 7 days, or in a container of a nebulizer at 25° C. for 24 hours. […] The methods used therefore were analytical methods commonly used in laboratory, as for example the visual inspection, as well as analysis by means of reverse HPLC."}, "[3]": {"experiment": "Stability investigation of the lyophilisate (visual inspection, reverse HPLC)", "format": "physicochemical", "protocol": "For that the lyophilisate was stored up to 24 months at 2 to 8° C. and up to 6 months at 25° C. at 60% relative humidity. Stability was investigated at different time points during that period. In particular the appearance, contents, as well as purity of the cyclic peptides were investigated. For that laboratory-common analytical processes were used, such as e.g. visual inspection and reverse HPLC."}, "[4]": {"experiment": "Breathing simulator, amount of aerosol available for inhalation", "format": "physicochemical", "settings": "nebulizers Type A and Type B", "protocol": "It is ramblingly known, that in practice from a generated aerosol only a part is available for the patient. Thus, for determining the amount of aerosol which is available for a user, trials with a breathing simulator were carried out. For investigating the particle size and for the implementation of the breathing simulation an aerosol from an aqueous solution of the cyclic peptide of amino acid sequence SEQ ID NO:1 was used. For generating aerosol different nebulizer types were used. The nebulizers A and B were so called “Mesh-Type nebulizers”."}, "[5]": {"settings": "laboratory syringe, 2 to 8° C., T = 0 to 7 days"}, "[6]": {"settings": "storage container of a nebulizer, 25° C., T = 0 to 24 hours"}},
  "note": "Bridges are numbered along the chain shown (N, C = ends). Where no end group is shown, it is not given here.",
  "data": [
    {"compound": "Cyclo(CGQREAPAGAAAKPWYC) (disulfide 1-17) [SEQ ID NO: 7, reference compound]", "values": [
      {"measurement": "whole cell sodium current", "setting": "[1]; no pretreatment with PNGase F", "value": "No activity"},
      {"measurement": "whole cell sodium current", "setting": "[1]; no pretreatment with PNGase F, listed as SEQ ID NO:7", "value": "no activity"},
      {"measurement": "whole cell sodium current", "setting": "[1]; pre-treatment with PNGase F", "value": "No activity"}
    ]},
    {"compound": "C[C@@H]1NC(=O)CNC(=O)[C@H](CCC(=O)O)NC(=O)[C@@H]2CCCN2C(=O)[C@H]([C@@H](C)O)NC(=O)[C@H](CCC(=O)O)NC(=O)[C@H](CCCNC(=N)N)NC(=O)[C@H](CCC(N)=O)NC(=O)CNC(=O)[C@@H](N)CSSC[C@@H](C(=O)O)NC(=O)[C@H](Cc2ccc(O)cc2)NC(=O)[C@H](Cc2c[nH]c3ccccc23)NC(=O)[C@@H]2CCCN2C(=O)[C@H](CCCCN)NC(=O)[C@H](C)NC(=O)[C@H](CCC(=O)O)NC1=O", "note": "[SEQ ID NO: 1]", "values": [
      {"measurement": "Purity of aqueous solution (stability study)", "setting": "[2]; laboratory syringe, 2 to 8° C., T = 0", "value": 96.3, "unit": "%"},
      {"measurement": "Amount/contents of aqueous solution", "setting": "[2]; [5]", "value": 25, "unit": "mg/mL"},
      {"measurement": "Appearance of aqueous solution", "setting": "[2]; [5]", "value": "clear solution"},
      {"measurement": "Purity of aqueous solution (stability study)", "setting": "[2]; laboratory syringe, 2 to 8° C., T = 7 days", "value": 96.2, "unit": "%"},
      {"measurement": "Purity of aqueous solution (stability study)", "setting": "[2]; storage container of a nebulizer, 25° C., T = 0", "value": 96.6, "unit": "%"},
      {"measurement": "Amount/contents of aqueous solution", "setting": "[2]; [6]", "value": 25, "unit": "mg/mL"},
      {"measurement": "Appearance of aqueous solution", "setting": "[2]; [6]", "value": "clear solution"},
      {"measurement": "Purity of aqueous solution (stability study)", "setting": "[2]; storage container of a nebulizer, 25° C., T = 24 hours", "value": 96.5, "unit": "%"},
      {"measurement": "Amount/Contents of lyophilisate", "setting": "[3]; storage 2-8° C., T = 0", "value": 100, "unit": "%"},
      {"measurement": "Purity of lyophilisate (stability study)", "setting": "[3]; storage 2-8° C., T = 0", "value": 96, "unit": "%"},
      {"measurement": "Appearence of lyophilisate", "setting": "[3]; storage 2-8° C., T = 0 to T = 24 M", "value": "white powder"},
      {"measurement": "Amount/Contents of lyophilisate", "setting": "[3]; storage 2-8° C., T = 24 M", "value": 99, "unit": "%"},
      {"measurement": "Purity of lyophilisate (stability study)", "setting": "[3]; storage 2-8° C., T = 24 M", "value": 96, "unit": "%"},
      {"measurement": "Amount/Contents of lyophilisate", "setting": "[3]; storage 25° C./60% rH, T = 0", "value": 100, "unit": "%"},
      {"measurement": "Purity of lyophilisate (stability study)", "setting": "[3]; storage 25° C./60% rH, T = 0", "value": 96, "unit": "%"},
      {"measurement": "Appearence of lyophilisate", "setting": "[3]; storage 25° C./60% rH, T = 0 to T = 6 M", "value": "white powder"},
      {"measurement": "Amount/Contents of lyophilisate", "setting": "[3]; storage 25° C./60% rH, T = 6 M", "value": 99, "unit": "%"},
      {"measurement": "Purity of lyophilisate (stability study)", "setting": "[3]; storage 25° C./60% rH, T = 6 M", "value": 95, "unit": "%"},
      {"measurement": "whole cell sodium current", "setting": "[1]; no pretreatment with PNGase F", "value": "1073.3 ± 15.1", "unit": "pA"},
      {"measurement": "whole cell sodium current", "setting": "[1]; pre-treatment with PNGase F", "value": "19.6 pA (n = 3)"},
      {"measurement": "part of the aerosol available for inhalation (inhalation filter)", "setting": "[4]", "value": "predominant part"}
    ]}
  ]
}
